Source: patent US8987195B2 (priority 2012, dated 2015)

System: HCV genotype 1b replicon
Experiment: HCV replicon assay, genotype 1b replicon EC50
Assay type: cell-based, Hepatitis C virus
Settings: Hepatitis C virus, genotype 1b replicon; read-out: EC50 [gt-1b]
Experimental: Measuring Compound Inhibitory Potency (Genotype 1b Replicon EC50 (nM))
Measurement of inhibition by compounds was performed using the HCV replicon system. Several different replicons encoding different HCV genotypes or mutations were used. In addition, potency measurements were made using different formats of the replicon assay, including different ways of measurements and different plating formats. See Jan M. Vrolijk et al., A replicons-based bioassay for the measurement of interferons in patients with chronic hepatitis C, 110 J. VIROLOGICAL METHODS 201 (2003); Steven S. Carroll et al., Inhibition of Hepatitis C Virus RNA Replication by 2′-Modified Nucleoside Analogs, 278(14) J. BIOLOGICAL CHEMISTRY 11979 (2003). However, the underlying principles are common to all of these determinations, and are outlined below.
Stable neomycin phosphotransferase encoding replicon-harboring cell lines were used, so all cell lines were maintained under G418 selection prior to the assay. In some cases the cell lines encoded a luciferase:Neo^r fusion and could be assayed either directly by determination of RNA copy number, or indirectly through measurement of the luciferase activity.
To initiate an assay, replicon cells were plated in the presence of a dilution series of test compound in the absence of G418. Typically, the assays were performed in a 96-well plate format for manual operation, or a 384 well plate in an automated assay. Replicon cells and compound were incubated for 24-48 hours, depending on the assay. At the end of the assay, cells are washed free of media and compound and then lysed. For direct quantitation, RNA levels were measured by ^32P-probe hybridization and protection, or in a TAQMAN based assay and normalized to cellular cyclophilin A RNA levels. In some cases, luciferase activity was measured using a conventional luciferase assay. In all cases EC50 determinations were calculated as a percent of a DMSO control by fitting the data to a four parameter fit function.

Row | SMILES | EC50 [nM]
1 | CC(C)(C)OC(=O)N[C@H]1CCCCC/C=C\[C@@H]2C[C@@]2(C(=O)NS(=O)(=O)C2(C)CC2)NC(=O)[C@@H]2C[C@]3(CCc4c(c(-c5cccc(F)c5)nc5ccccc45)O3)CN2C1=O [Example 13, tert-Butyl (2R,6S,13aS,14aR,16aS,Z)-5′-(3-fluorophenyl)-14a-(1-methylcyclopropylsulfonylcarbamoyl)-5,16-dioxo-1′,2′,3,5,6,7,8,9,10,11,13a,14,14a,15,16,16a-hexadecahydro-1H-spiro[cyclopropa[e]pyrrolo[1,2-a][1,4]diazacyclopentadecine-2,3′-pyrano[2,3-c]quinoline-]-6-ylcarbamate] | 4.23
2 | CC(C)(C)OC(=O)N[C@H]1CCCCC/C=C\[C@@H]2C[C@@]2(C(=O)NS(=O)(=O)C2(C)CC2)NC(=O)[C@@H]2C[C@@]3(CCc4c(c(-c5cccc(F)c5)nc5ccccc45)O3)CN2C1=O [Example 14, tert-Butyl (2S,6S,13aS,14aR,16aS,Z)-5′-(3-fluorophenyl)-14a-(1-methylcyclopropylsulfonylcarbamoyl)-5,16-dioxo-1′,2′,3,5,6,7,8,9,10,11,13a,14,14a,15,16,16a-hexadecahydro-1H-spiro[cyclopropa[e]pyrrolo[1,2-a][1,4]diazacyclopentadecine-2,3′-pyrano[2,3-c]quinoline]-6-ylcarbamate] | 6.5
3 | CC(C)(C)OC(=O)N[C@H]1CCCCC/C=C\[C@@H]2C[C@@]2(C(=O)NS(=O)(=O)C2CC2)NC(=O)[C@@H]2C[C@]3(CCc4c(c(-c5cccc(F)c5)nc5ccccc45)O3)CN2C1=O [Example 15, tert-Butyl (2R,6S,13aS,14aR,16aS,Z)-14a-(cyclopropylsulfonylcarbamoyl)-5′-(3-fluorophenyl)-5,16-dioxo-1′,2′,3,5,6,7,8,9,10,11,13a,14,14a,15,16,16a-hexadecahydro-1H -spiro[cyclopropa[e]pyrrolo[1,2-a][1,4]diazacyclopentadecine-2,3′-pyrano[2,3-c]quinoline]-6-ylcarbamate] | 9.36
4 | CC(C)(C)OC(=O)N[C@H]1CCCCC/C=C\C2CC2(C(=O)NS(=O)(=O)C2(C)CC2)NC(=O)C2C[C@]3(CCc4c(c(C5CC5)nc5ccccc45)O3)CN2C1=O (stereo partly drawn) [Example 18, tert-Butyl (2R,6S,13aS,14aR,16aS,Z)-5′-cyclopropyl-14a-(1-methylcyclopropylsulfonylcarbamoyl)-5,16-dioxo-1′,2′,3,5,6,7,8,9,10,11,13a,14,14a,15,16,16a-hexadecahydro-1H-spiro[cyclopropa[e]pyrrolo[1,2-a][1,4]diazacyclopentadecine-2,3′-pyrano[2,3-c]quinoline-]-6-ylcarbamate] | 0.77
5 | CC(C)COC(=O)N[C@H]1CCCCC/C=C\[C@@H]2C[C@@]2(C(=O)NS(=O)(=O)C2(C)CC2)NC(=O)[C@@H]2C[C@]3(CCc4c(c(-c5cccc(F)c5)nc5ccccc45)O3)CN2C1=O [Example 21, Isobutyl (2R,6S,13aS,14aR,16aS,Z)-5′-(3-fluorophenyl)-14a-(1-methylcyclopropylsulfonylcarbamoyl)-5,16-dioxo-1′,2′,3,5,6,7,8,9,10,11,13a,14,14a,15,16,16a-hexadecahydro-1H-spiro[cyclopropa[e]pyrrolo[1,2-a][1,4]diazacyclopentadecine-2,3′-pyrano[2,3-c]quinoline]-6-ylcarbamate] | 0.81
6 | CC1(OC(=O)N[C@H]2CCCCC/C=C\[C@@H]3C[C@@]3(C(=O)NS(=O)(=O)C3(C)CC3)NC(=O)[C@@H]3C[C@]4(CCc5c(c(-c6cccc(F)c6)nc6ccccc56)O4)CN3C2=O)CC1 [Example 22, 1-Methylcyclopropyl (2R,6S,13aS,14aR,16aS,Z)-5′-(3-fluorophenyl)-14a-(1-methylcyclopropylsulfonylcarbamoyl)-5,16-dioxo-1′,2′,3,5,6,7,8,9,10,11,13a,14,14a,15,16, 16a-hexadecahydro-1H-spiro[cyclopropa[e]pyrrolo[1,2-a][1,4]diazacyclopentadecine-2,3′-pyrano[2,3-c]quinoline]-6-ylcarbamate] | 4.14
7 | CC(C)(C)NC(=O)N[C@H]1CCCCC/C=C\[C@@H]2C[C@@]2(C(=O)NS(=O)(=O)C2(C)CC2)NC(=O)[C@@H]2C[C@]3(CCc4c(c(-c5cccc(F)c5)nc5ccccc45)O3)CN2C1=O [Example 23, (2R,6S,13aS,14aR,16aS,Z)-6-(3-tert-Butylureido)-5′-(3-fluorophenyl)-N-(1-methylcyclopropylsulfonyl)-5,16-dioxo-1′,2′,3,5,6,7,8,9,10,11,13a,14,14a,15,16,16a-hexadecahydro-1H-spiro[cyclopropa[e]pyrrolo[1,2-a][1,4]diazacyclopentadecine-2,3′-pyrano[2,3-c]quinoline]-14a-carboxamide] | 9.13
8 | CC1(S(=O)(=O)NC(=O)[C@@]23C[C@H]2/C=C\CCCCC[C@H](NC(=O)CC(F)(F)F)C(=O)N2C[C@@]4(CCc5c(c(-c6cccc(F)c6)nc6ccccc56)O4)C[C@H]2C(=O)N3)CC1 [Example 24, (2R,6S,13aS,14aR,16aS,Z)-5′-(3-Fluorophenyl)-N-(1-methylcyclopropylsulfonyl)-5,16-dioxo-6-(3,3,3-trifluoropropanamido)-1′,2′,3,5,6,7,8,9,10,11,13a,14,14a,15,16, 16a-hexadecahydro-1H-spiro[cyclopropa[e]pyrrolo[1,2-a][1,4]diazacyclopentadecine-2,3′-pyrano[2,3-c]quinoline]-14a-carboxamide] | 5.92
9 | Cc1nc2ccccc2c2c1O[C@]1(CC2)C[C@H]2C(=O)N[C@]3(C(=O)NS(=O)(=O)C4(C)CC4)C[C@H]3/C=C\CCCCC[C@H](NC(=O)NC(C)(C)C)C(=O)N2C1 [Example 76, (2R,6S,12Z,13aS,14aR,16a5)-6-[(tert-butylcarbamoyl)amino]-5′-methyl-N-[(1-methylcyclopropyl)sulfonyl]-5,16-dioxo-1,1′,2′,6,7,8,9,10,11,13a,14,15,16,16a-tetradecahydrospiro[cyclopropa[e]pyrrolo[1,2-a][1,4]diazacyclopentadecine-2,3′-pyrano[2,3-c]quinoline]-14a(5H)-carboxamide] | 11.9
10 | CC(C)(C)OC(=O)N[C@H]1CCCCC/C=C\[C@@H]2C[C@@]2(C(=O)O)NC(=O)[C@@H]2C[C@]3(CCc4c(c(-c5cccc(F)c5)nc5ccccc45)O3)CN2C1=O [Example 77, (2R,6S,12Z,13aS,14aR,16aS)-6-[(tert-butoxycarbonyl)amino]-5′-(3-fluorophenyl)-5,16-dioxo-1,1′,2′,6,7,8,9,10,11,13a,14,15,16,16a-tetradecahydrospiro[cyclopropa[e]pyrrolo[1,2-a][1,4]diazacyclopentadecine-2,3′-pyrano[2,3-c]quinoline]-14a(5H)-carboxylic acid] | > 100
11 | Cc1nc2ccccc2c2c1O[C@]1(CC2)C[C@H]2C(=O)N[C@]3(C(=O)NS(=O)(=O)C4(C)CC4)C[C@H]3/C=C\CCCCC[C@H](NC(=O)OC3(C)CCC3)C(=O)N2C1 [Example 80, 1-methylcyclobutyl [(2R,6S,12Z,13aS,14aR,16aS)-5′-methyl-14a-{[(1-methylcyclopropyl)sulfonyl]carbamoyl}-5,16-dioxo-1,1′,2′,5,6,7,8,9,10,11,13a,14,14a,15,16,16a-hexadecahydrospiro[cyclopropa[e]pyrrolo[1,2-a][1,4]diazacyclopentadecine-2,3′-pyrano[2,3-c]quinolin]-6-yl]carbamate] | 1.47

Same assay, conditions: genotype 1b replicon; read-out: EC50 [gt-1b]

Row | SMILES | EC50 [nM]
12 | COc1ccc2nc(C(F)(F)F)c3c(c2c1)[C@H](OC(=O)NS(=O)(=O)C1(C)CC1)C[C@]1(C[C@H]2C(=O)N[C@]4(C(=O)NS(=O)(=O)C5(C)CC5)C[C@H]4/C=C\CCCCC[C@H](NC(=O)OC(C)(C)C)C(=O)N2C1)O3 [Example 52, tert-Butyl ((1′R,2S,6S,13aS,14aR,16aS,Z)-9′-methoxy-14a-(((1-methylcyclopropyl)sulfonyl)carbamoyl)-1′-((((1-methylcyclopropyl)sulfonyl)carbamoyl)oxy)-5,16-dioxo-5′-(trifluoromethyl)-1′,2′,3,5,6,7,8,9,10,11,13a,14,14a,15,16,16a-hexadecahydro-1H-spiro[cyclopropa[e]pyrrolo[1,2-a][1,4]diazacyclopentadecine-2,3′-pyrano[2,3-c]quinolin]-6-yl)carbamate] | 1.77
13 | COc1ccc2nc(C(F)(F)F)c3c(c2c1)[C@H](OC(=O)NS(=O)(=O)C1(C)CC1)C[C@]1(C[C@H]2C(=O)N[C@]4(C(=O)NS(=O)(=O)C5(C)CC5)C[C@H]4/C=C\CCCCC[C@H](NC(=O)OC(C)(C)C)C(=O)N2C1)O3 [Example 53, tert-Butyl ((1′R,2S,6S,13aS,14aR,16aS,Z)-9′-methoxy-14a-(((1-methylcyclopropyl)sulfonyl)carbamoyl)-1′-((((1-methylcyclopropyl)sulfonyl)carbamoyl)oxy)-5,16-dioxo-5′-(trifluoromethyl)-1′,2′,3,5,6,7,8,9,10,11,13a,14,14a,15,16,16a-hexadecahydro-1H-spiro[cyclopropa[e]pyrrolo[1,2-a][1,4]diazacyclopentadecine-2,3′-pyrano[2,3-c]quinolin]-6-yl)carbamate] | 15.9
